In article PMC3240935, “Development and characterization of a novel C-terminal inhibitor of Hsp90 in androgen dependent and independent prostate cancer cells” (2011):

Molecular target: T1, Hsp90β (Homo sapiens, UniProt P08238)
T1 construct: gene HSP90AB1; recombinant Hsp90β purified from baculovirus infected Sf9 cells
Experiment: SPR, immobilized Hsp90β, binding curve fit (kinetic Kd […])

T1 sequence (P08238 2-724): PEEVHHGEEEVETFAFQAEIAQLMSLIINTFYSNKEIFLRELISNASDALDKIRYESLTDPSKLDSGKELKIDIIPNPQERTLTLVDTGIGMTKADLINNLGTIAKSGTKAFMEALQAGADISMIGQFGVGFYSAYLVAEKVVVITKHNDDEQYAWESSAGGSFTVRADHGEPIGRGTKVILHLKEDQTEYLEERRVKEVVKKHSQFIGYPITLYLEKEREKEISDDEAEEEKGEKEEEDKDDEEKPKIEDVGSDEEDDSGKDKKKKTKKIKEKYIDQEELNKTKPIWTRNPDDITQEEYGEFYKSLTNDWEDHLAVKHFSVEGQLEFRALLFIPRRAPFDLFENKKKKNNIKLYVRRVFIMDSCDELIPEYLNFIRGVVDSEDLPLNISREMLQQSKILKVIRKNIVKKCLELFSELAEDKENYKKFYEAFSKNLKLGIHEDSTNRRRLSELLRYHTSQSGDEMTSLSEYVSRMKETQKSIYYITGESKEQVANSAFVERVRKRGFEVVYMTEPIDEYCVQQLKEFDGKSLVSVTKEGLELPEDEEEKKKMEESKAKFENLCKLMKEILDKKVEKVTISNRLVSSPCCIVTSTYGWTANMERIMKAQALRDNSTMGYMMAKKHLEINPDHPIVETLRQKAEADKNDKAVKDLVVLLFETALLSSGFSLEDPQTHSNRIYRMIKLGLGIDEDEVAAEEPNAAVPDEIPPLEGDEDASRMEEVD

KU174
Kd: 78 µM
